The numbers were not newly measured in patent US20140023695A1, “PATCH PREPARATION” (priority 2011, published 2014), which cites them from elsewhere.

For data set [1], the target named is dopamine D2 (Homo sapiens, UniProt P14416). Conditions: as compared to existing antipsychotic, haloperidol.
Data set [2] has as its system serotonin 5-HT2 receptor. Particulars: as compared to existing antipsychotic, haloperidol.

Each structure is given as a SMILES string.

Sequence of dopamine D2 (P14416 whole entry): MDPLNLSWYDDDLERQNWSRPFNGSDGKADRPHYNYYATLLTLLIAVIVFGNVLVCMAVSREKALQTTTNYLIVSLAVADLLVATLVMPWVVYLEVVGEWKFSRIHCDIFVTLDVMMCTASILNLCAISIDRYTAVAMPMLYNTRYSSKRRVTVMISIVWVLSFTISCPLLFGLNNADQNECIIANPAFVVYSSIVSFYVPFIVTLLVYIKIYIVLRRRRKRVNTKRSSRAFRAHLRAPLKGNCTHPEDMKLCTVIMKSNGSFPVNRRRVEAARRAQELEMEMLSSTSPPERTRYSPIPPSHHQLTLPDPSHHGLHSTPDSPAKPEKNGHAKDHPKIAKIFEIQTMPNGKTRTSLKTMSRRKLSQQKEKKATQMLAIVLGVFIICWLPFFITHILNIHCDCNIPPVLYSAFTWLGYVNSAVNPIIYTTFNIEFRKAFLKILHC

On to `CCN1CCN(c2cc(-c3ccc(F)cc3)c3c(n2)CCCCCC3)CC1` [compound A, 2-(4-Ethyl-1-piperazinyl)-4-(4-fluorophenyl)-5,6,7,8,9,10-hexahydrocycloocta[b]pyridine], for which the “affinity for dopamine D2” value in data set [1] is given as “higher affinity”. Also, the “affinity for serotonin 5-HT2 receptor” value in data set [2] was “higher affinity”.
